The values below come from patent US10881110B2, “Herbicidal compositions comprising isoxazolo[5,4-b]pyridines” (BASF SE, priority 2014, dated 2021).

Common to all, as to test: greenhouse post-emergence herbicidal test
For one experiment, the system named is DIGSA. The format is in vivo, Digitaria sanguinalis. The method, then:
(§1) The culture containers used were plastic pots containing medium loamy sand with approximately 4.6% of humus and 69.9% sand as substrate. The seeds of the test plants were sown separately for each species.
(§2) For the post-emergence treatment, the test plants were grown to a plant height of from 1 to 15 cm, depending on the plant habit, and only then treated with the active compounds which had been suspended or emulsified in water. To this end, the test plants were either sown directly, and grown in the same containers, or they were first grown separately as seedlings and transplanted into the test containers a few days prior to treatment.
(§3) Depending on the species, the plants were kept at 10-25° C. and 20-35° C., respectively.
(§4) The test period extended over 1 to 3 weeks. During this time, the plants were tended and their response to the individual treatments was evaluated 20 days after treatment except mentioned otherwise.
(§5) Evaluation was carried out using a scale from 0 to 100. 100 means no emergence of the plants, or complete destruction of at least the above-ground parts, and 0 means no damage or normal course of growth.
(§6) The respective stated components A and B, and, if appropriate, C, were formulated as a 10% by weight strength emulsion concentrate and, with addition of the amount of solvent system, introduced into the spray liquor used for applying the active compound. In the examples, the solvent used was water.
(§7) In the examples below, using the method of S. R. Colby (1967) “Calculating synergistic and antagonistic responses of herbicide combinations”, Weeds 15, p. 22 ff., the value E, which is expected if the activity of the individual active compounds is only additive, was calculated. E=X+Y−(X·Y/100)

The next experiment relates to ECHCG. In kind it is in vivo, Echinochloa crus-galli. Set-up: key to herbicidal activity against ECHCG found / herbicidal activity against ECHCH found: scale 0 to 100. The conditions noted are these: post emergence; application rate a.i.: I.1 250 g/ha, B.193 15 g/ha, alone or as mixture (composition 1.193). Summed up:
(§8)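 Combination activity judged against additive expectation by Colby, E=X+Y−(X·Y/100), from 0–100 damage ratings taken 20 days post-spray. Plants at 1–15 cm in loamy sand (69.9% sand) were sprayed with components formulated as 10% w/w emulsion concentrate in water.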

The test system of the next experiment is ALOMY. The format is in vivo, Alopecurus myosuroides. Also on record: key to herbicidal activity against ALOMY found: rating on a scale from 0 to 100. The conditions noted are these: post emergence; application rate a.i.: I.1 250 g/ha, B.193 15 g/ha, alone or as mixture (composition 1.193). Summed up:
as §8

For another experiment, the system named is GERDI. The format is in vivo, Geranium dissectum. Set-up: key to herbicidal activity against GERDI found: rating on a scale from 0 to 100. The conditions noted are these: post emergence; application rate a.i.: I.1 250 g/ha, B.193 15 g/ha, alone or as mixture (composition 1.193). The procedure, abridged:
as §8

The subject of another experiment is MATCH. In kind it is in vivo, Matricaria recutita. The conditions noted are these: Matricaria chamomilla, post-emergence, 480 h, post emergence; 20 g/ha a.i.; read-out: herbicidal activity against MATCH found. The procedure, abridged: as §8
The test system of another experiment is POLPE. The format is in vivo, Persicaria maculosa. Also on record: key: scale 0 to 100. The conditions noted are these: 20 g/ha a.i. The method, then:
as §1, §2, §3, §4, §5, §6, §7

The subject of a further experiment is AMBEL. In kind it is in vivo, Ambrosia artemisiifolia. Also on record: key: rating on a scale from 0 to 100. The conditions noted are these: 20 g/ha a.i. The method, then: as §1, §2, §3, §4, §5, §6, §7
In a further experiment the test system is CHEAL. In kind it is in vivo, Chenopodium album. The method, then:
as §1, §2, §3, §4, §5, §6, §7

In the next experiment the test system is CONAR. In kind it is in vivo, Convolvulus arvensis. Also on record: key: rating on a scale from 0 to 100. The method, then: as §1, §2, §3, §4, §5, §6, §7
In a further experiment the test system is AMARE. The format is in vivo, Amaranthus retroflexus. The conditions noted are these: a.i. g/ha: I.1 31.25, B.76 225, 20 days after treatment. The method, then:
as §1, §2, §3, §4, §5, §6, §7

The test system of the next experiment is GALAP. The format is in vivo, Galium aparine. Set-up: key to herbicidal activity against GALAP found: rating on a scale from 0 to 100. The conditions noted are these: post emergence; a.i. g/ha: I.1 62.5, B.77 75; 20 days after treatment. Summed up:
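Herbicidal activity scored on a 0 (no damage) to 100 (plants destroyed) scale, usually 20 days after water-based spraying of 1–15 cm plants grown in loamy sand at 10-25 °C or 20-35 °C depending on species. Components were applied from 10% emulsion concentrates; Colby's E=X+Y−(X·Y/100) gives the additive expectation.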

The next experiment deals with LOLMU. In kind it is in vivo, Lolium multiflorum. The conditions noted are these: a.i. g/ha: I.1 62.5, B.77 75, 20 days after treatment. The method, then:
as §1, §2, §3, §4, §5, §6, §7

In the next experiment the test system is ERICA. In kind it is in vivo, Conyza canadensis. Also on record: key to herbicidal activity against ERICA found: rating on a scale from 0 to 100. As to conditions: post emergence; a.i. g/ha: I.1 62.5, B.80 250; 20 days after treatment. The procedure, abridged: as §8
Setting [1] is: a.i. g/ha: I.1 31.25, B.76 225, 20 days after treatment.
[2] abbreviates: a.i. g/ha: I.1 62.5, B.76 225, 20 days after treatment.
Where [3] appears, read: a.i. g/ha: I.1 62.5, B.80 250, 20 days after treatment.

Take `Cc1ccccc1CO[C@H]1C[C@]2(C(C)C)CC[C@@]1(C)O2` (racemic) [B.193]: the “herbicidal activity against DIGSA found” value in the experiment with DIGSA (application rate a.i.: I.1 250 g/ha, B.193 15 g/ha, alone or as mixture (composition 1.193)) is reported as 20. Besides, the “herbicidal activity against ECHCG found” value with ECHCG is given as 40. Also, the “herbicidal activity against ALOMY found” value in the experiment with ALOMY is 0. Moreover, the “herbicidal activity against GERDI found” value in the experiment on GERDI was 40.
`COc1cc(OC)nc(NC(=O)NS(=O)(=O)c2ncccc2C(=O)N(C)C)n1` [B.51, nicosulfuron]: the pest or weed control at 20 g/ha in the experiment on MATCH turned out to be 90%. The “herbicidal activity against POLPE found” value in the experiment on POLPE worked out at 95. Also, the “herbicidal activity against AMBEL found” value with AMBEL was found to be 80.
As to `CC(C)c1ccc(NC(=O)N(C)C)cc1` [B.76, isoproturon], the “herbicidal activity against DIGSA found” value in the experiment with DIGSA (setting [1]) and in the experiment with DIGSA (setting [2]) was 30% throughout. Besides, the “herbicidal activity against CHEAL found” value with CHEAL (setting [1]) and in the experiment on CHEAL (setting [2]) was 65% each time. Moreover, the “herbicidal activity against CONAR found” value in the experiment on CONAR (setting [2]) is reported as 65%. The “herbicidal activity against AMARE found” value with AMARE is 50%.
In the case of `CON(C)C(=O)Nc1ccc(Cl)c(Cl)c1` [B.77, linuron], in the experiment with GALAP, the “herbicidal activity against GALAP found” value is 40%. The “herbicidal activity against CONAR found” value in the experiment with CONAR (a.i. g/ha: I.1 62.5, B.77 75, 20 days after treatment) is reported as 50%. Besides, the “herbicidal activity against LOLMU found” value in the experiment with LOLMU is listed as 35%.
On to `CCC(=O)Nc1ccc(Cl)c(Cl)c1` [B.80, propanil], for which the “herbicidal activity against DIGSA found” value in the experiment with DIGSA (setting [3]) is reported as 40%. In addition, the “herbicidal activity against ERICA found” value in the experiment on ERICA turned out to be 65%. Also, the “herbicidal activity against CONAR found” value in the experiment with CONAR (setting [3]) is reported as 20%.
